42 compounds from patent US11427556B2, “Urea derivatives as inhibitors of ASK1” (Hepagene Therapeutics (HK) Limited, priority 2017, dated 2022) can be followed below.

Structures are written as SMILES.

One assay deals with T1, Recombinant human ASK1 kinase (Homo sapiens, UniProt Q99683).
T1 construct: purchased Invitrogen Inc
T1 sequence (Q99683 1-1374): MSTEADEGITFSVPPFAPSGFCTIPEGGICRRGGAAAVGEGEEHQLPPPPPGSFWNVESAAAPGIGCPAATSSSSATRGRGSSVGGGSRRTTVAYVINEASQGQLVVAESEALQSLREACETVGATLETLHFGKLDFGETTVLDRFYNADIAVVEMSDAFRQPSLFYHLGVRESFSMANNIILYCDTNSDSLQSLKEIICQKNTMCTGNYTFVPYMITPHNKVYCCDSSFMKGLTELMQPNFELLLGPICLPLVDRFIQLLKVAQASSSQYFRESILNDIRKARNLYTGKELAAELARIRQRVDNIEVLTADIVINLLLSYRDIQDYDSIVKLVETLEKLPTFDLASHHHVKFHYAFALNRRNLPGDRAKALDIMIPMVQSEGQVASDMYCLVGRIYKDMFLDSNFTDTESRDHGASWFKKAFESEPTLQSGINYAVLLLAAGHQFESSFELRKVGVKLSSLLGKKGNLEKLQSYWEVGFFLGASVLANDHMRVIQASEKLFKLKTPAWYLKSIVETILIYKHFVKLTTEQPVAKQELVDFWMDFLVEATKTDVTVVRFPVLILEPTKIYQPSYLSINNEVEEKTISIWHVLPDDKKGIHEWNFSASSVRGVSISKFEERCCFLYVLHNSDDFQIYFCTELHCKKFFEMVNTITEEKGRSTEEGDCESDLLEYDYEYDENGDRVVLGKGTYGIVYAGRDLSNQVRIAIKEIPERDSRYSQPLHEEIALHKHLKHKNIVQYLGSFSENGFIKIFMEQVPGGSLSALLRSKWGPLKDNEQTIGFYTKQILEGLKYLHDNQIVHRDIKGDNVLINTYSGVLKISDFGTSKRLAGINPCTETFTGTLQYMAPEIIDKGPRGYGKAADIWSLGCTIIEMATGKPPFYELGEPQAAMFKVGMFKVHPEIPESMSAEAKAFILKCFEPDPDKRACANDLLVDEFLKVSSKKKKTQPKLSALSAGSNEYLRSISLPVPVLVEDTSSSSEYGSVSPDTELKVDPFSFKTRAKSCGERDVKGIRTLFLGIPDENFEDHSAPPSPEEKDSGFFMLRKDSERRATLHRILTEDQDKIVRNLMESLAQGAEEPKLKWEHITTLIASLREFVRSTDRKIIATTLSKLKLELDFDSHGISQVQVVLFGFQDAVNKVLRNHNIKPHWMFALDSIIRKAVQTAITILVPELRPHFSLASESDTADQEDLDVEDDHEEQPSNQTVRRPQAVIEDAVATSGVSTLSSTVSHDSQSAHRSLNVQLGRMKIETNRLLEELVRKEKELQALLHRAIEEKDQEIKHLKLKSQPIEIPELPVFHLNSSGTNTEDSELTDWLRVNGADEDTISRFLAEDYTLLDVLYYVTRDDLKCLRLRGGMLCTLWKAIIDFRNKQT
As to the kind of experiment: ASK1 kinase HTRF assay (HTRF KinEASE-STK, phosphorylation of biotinylated peptide substrate). The assay is classed as biochemical.
Details: not given
The method, then: Reagents: Recombinant human ASK1 kinase was from Invitrogen Inc. HTRF KinEASETM-STK S3 kit was obtained from Cisbio (Bedford, Mass.). All other reagents were of the highest grade commercially available.
Assay: The assay measures the phosphorylation level of a biotinylatd peptide substrate by the ASK1 kinase using HTRF detection. ASK1 kinase assay is based on HTRF KinEASETM-STK manual from Cisbio. Test compound, 1 uM STK-substrate-biotin, 3 nM of ASK1 kinase are incubated with 1*Kinase buffer with 5 mM MgCl2 and 1 mM DTT.
A general note: In TR-FRET formats the signal depends on donor and acceptor labels being close together.
Broadly, the EC50 is the concentration that produces a half-maximal response. As to `CC(C)n1cnnc1-c1cccc(NC(=O)Nc2ccccc2)n1` [Compound I-016], the EC50 lay in the range of 50 to 500 nM.

On to `CC(C)n1cnnc1-c1cccc(NC(=O)Nc2ccccn2)n1` [Compound I-025], for which the EC50 is under 50 nM.

For `CC(C)n1cnnc1-c1cccc(NC(=O)Nc2cccnc2)n1` [Compound I-032], the EC50 was in the range of 50 to 500 nM. As to `CC(C)n1cnnc1-c1cccc(NC(=O)Nc2ccncc2)n1` [Compound I-033], the EC50 fell in the range of 50 to 500 nM.

Still in this assay, the particulars now being: 3 nM ASK1 kinase, 1 uM STK-substrate-biotin, HTRF detection; read-out: EC50.
On to `Cc1ccc(NC(=O)Nc2cccc(-c3nncn3C(C)C)n2)nc1` [Compound I-001, 1-(6-(4-Isopropyl-4H-1,2,4-triazol-3-yl)pyridin-2-yl)-3-(5-methylpyridin-2-yl) urea], for which the EC50 was under 50 nM. On to `C[C@H](CO)n1cnnc1-c1cccc(NC(=O)Nc2cc(-c3ccc(C4CC4)nc3)ccn2)n1` [Compound I-002, 3-[4-(6-Cyclopropylpyridin-3-yl)pyridin-2-yl]-1-(6-{4-[(2R)-1-hydroxypropan-2-yl]-4H-1,2,4-triazol-3-yl}pyridin-2-yl)urea], for which the EC50 is under 50 nM. Take `CC(n1cnnc1-c1cccc(NC(=O)Nc2ccccn2)n1)C(F)(F)F` (stereo not drawn) [Compound I-003, 3-(Pyridin-2-yl)-1-[6-[4-(1,1,1-trifluoropropan-2-yl)-4H-1,2,4-triazol-3-yl]pyridin-2-yl]urea]: the EC50 was under 50 nM.

With `CC(C)n1cnnc1-c1cccc(NC(=O)Nc2cc(NC(=O)c3ccccc3)ccn2)n1` [Compound I-004, N-(2-(3-(6-(4-Isopropyl-4H-1,2,4-triazol-3-yl)pyridin-2-yl)ureido)pyridin-4-yl)benzamide], the EC50 was under 50 nM. `CC(C)n1cnnc1-c1cccc(NC(=O)Nc2cc(N3CCN(C)CC3)ccn2)n1` [Compound I-005, 1-(6-(4-Isopropyl-4H-1,2,4-triazol-3-yl)pyridin-2-yl)-3-(4-(4-methylpiperazin-1-yl)pyridin-2-yl)urea]: the EC50 is under 50 nM. On to `CC(C)n1cnnc1-c1cccc(NC(=O)Nc2cc(C(=O)N3CCc4ccccc4C3)ccn2)n1` [Compound I-006, 1-(6-(4-Isopropyl-4H-1,2,4-triazol-3-yl)pyridin-2-yl)-3-(4-(1,2,3,4-tetrahydroisoquinoline-2-carbonyl)pyridin-2-yl)urea], for which the EC50 was under 50 nM.

As for `C[C@H](CO)n1cnnc1-c1cccc(NC(=O)Nc2cc(C(=O)N3CCC(C)(C)CC3)ccn2)n1` [Compound I-007, (R)-1-(4-(4,4-Dimethylpiperidine-1-carbonyl)pyridin-2-yl)-3-(6-(4-(1-hydroxypropan-2-yl)-4H-1,2,4-triazol-3-yl)pyridin-2-yl)urea], the EC50 was under 50 nM. With `CC(C)(C)n1cnnc1-c1cccc(NC(=O)Nc2cc(C(=O)N3CCCCC3)ccn2)n1` [Compound I-008, 3-[6-(4-tert-Butyl-4H-1,2,4-triazol-3-yl)pyridin-2-yl]-1-[4-(piperidine-1-carbonyl)pyridin-2-yl]urea], the EC50 was under 50 nM.

Regarding `CC(C)n1cnnc1-c1cccc(NC(=O)Nc2ccc(C(N)=O)cn2)n1` [Compound I-009, 6-(3-(6-(4-Isopropyl-4H-1,2,4-triazol-3-yl)pyridin-2-yl)ureido)nicotinamide], the EC50 was under 50 nM. For the compound `CC(=O)OC[C@@H](C)n1cnnc1-c1cccc(NC(=O)Nc2cc(C(=O)N3CCCCC3)ccn2)n1` [Compound I-012, (2R)-2-[3-[6-([[4-(Piperidine-1-carbonyl)pyridin-2-yl]carbamoyl]amino)pyridin-2-yl]-4H-1,2,4-triazol-4-yl]propyl acetate], the EC50 is 50 to 500 nM. As for `CC(C)[C@H](N)C(=O)OC[C@@H](C)n1cnnc1-c1cccc(NC(=O)Nc2cc(C(=O)N3CCCCC3)ccn2)n1` [Compound I-013, (2R)-2-[3-[6-([[4-(Piperidine-1-carbonyl)pyridin-2-yl]carbamoyl]amino)pyridin-2-yl]-4H-1,2,4-triazol-4-yl]propyl (2S)-2-amino-3-methylbutanoate], the EC50 was under 50 nM. For the compound `CC(C)n1cnnc1-c1cccc(NC(=O)Nc2cc(S(=O)(=O)Nc3ccccc3)ccn2)n1` [Compound I-014, 1-[4-(Phenylsulfamoyl)pyridin-2-yl]-3-[6-[4-(propan-2-yl)-4H-1,2,4-triazol-3-yl]pyridin-2-yl]urea], the EC50 is under 50 nM. The same measure, in the same setting: the same measure for `CC(C)n1cnnc1-c1cccc(NC(=O)Nc2cc(NS(=O)(=O)c3ccccc3)ccn2)n1` [Compound I-015, 3-(4-Benzenesulfonamidopyridin-2-yl)-1-[6-[4-(propan-2-yl)-4H-1,2,4-triazol-3-yl]pyridin-2-yl]urea]: under 50 nM; for `Cc1ccc(NC(=O)Nc2cccc(-c3nncn3C(C)C)n2)cc1` [Compound I-017]: 50 to 500 nM. As for `Cc1ccc(NC(=O)Nc2cccc(-c3nncn3C(C)C)n2)c(F)c1` [Compound I-018], the EC50 was in the range of 50 to 500 nM. `Cc1cc(F)c(NC(=O)Nc2cccc(-c3nncn3C(C)C)n2)cc1-n1cnc(C2CC2)c1` [Compound I-020]: the EC50 was 500 to 5000 nM.

On to `C[C@H](CO)n1cnnc1-c1cccc(NC(=O)Nc2ccccn2)n1` [Compound I-026], for which the EC50 is under 50 nM. For `C[C@@H](CO)n1cnnc1-c1cccc(NC(=O)Nc2ccccn2)n1` [Compound I-027], the EC50 lay in the range of 50 to 500 nM. On the same count and under the same terms, to `CCC(C)n1cnnc1-c1cccc(NC(=O)Nc2ccccn2)n1` (stereo not drawn) [Compound I-028] belongs under 50 nM.

With `CC(CN)n1cnnc1-c1cccc(NC(=O)Nc2ccccn2)n1` (stereo not drawn) [Compound I-030], the EC50 was in the range of 50 to 500 nM. Still for that read-out and setting: the same measure for `COCC(C)n1cnnc1-c1cccc(NC(=O)Nc2ccccn2)n1` (stereo not drawn) [Compound I-031]: 50 to 500 nM; for `Cc1ccc(NC(=O)Nc2cccc(-c3nncn3C3CC3)n2)nc1` [Compound I-034]: 50 to 500 nM.

On to `Cc1ccc(NC(=O)Nc2cccc(-c3nncn3C(C)CO)n2)nc1` (stereo not drawn) [Compound I-035], for which the EC50 is under 50 nM.

On to `Cc1ccc(NC(=O)Nc2cccc(-c3nncn3[C@H](C)CO)n2)nc1` [Compound I-036], for which the EC50 is under 50 nM. `Cc1ccc(NC(=O)Nc2cccc(-c3nncn3[C@@H](C)CO)n2)nc1` [Compound I-037]: the EC50 lay within 50 to 500 nM. In the case of `Cc1ccnc(NC(=O)Nc2cccc(-c3nncn3C(C)C)n2)c1` [Compound I-038], the EC50 was under 50 nM. Turning to `Cc1cccnc1NC(=O)Nc1cccc(-c2nncn2C(C)C)n1` [Compound I-039], the EC50 is under 50 nM. As for `Cc1cccc(NC(=O)Nc2cccc(-c3nncn3C(C)C)n2)n1` [Compound I-040], the EC50 is under 50 nM.

Turning to `Cc1ccc(NC(=O)Nc2cccc(-c3nncn3C(C)C)n2)cn1` [Compound I-041], the EC50 was in the range of 50 to 500 nM. Consider `CCc1ccnc(NC(=O)Nc2cccc(-c3nncn3C(C)C)n2)c1` [Compound I-042], for which the EC50 is under 50 nM. For `Cc1cnc(NC(=O)Nc2cccc(-c3nncn3C(C)C)n2)cc1C` [Compound I-043], the EC50 was under 50 nM. As to `CC(C)c1ccc(NC(=O)Nc2cccc(-c3nncn3C(C)C)n2)nc1` [Compound I-044], the EC50 is under 50 nM.

In the case of `CC(C)c1ccnc(NC(=O)Nc2cccc(-c3nncn3C(C)C)n2)c1` [Compound I-045], the EC50 is under 50 nM.

For `CC(C)n1cnnc1-c1cccc(NC(=O)Nc2ccc(C3CC3)cn2)n1` [Compound I-046], the EC50 is under 50 nM.

Take `CC(C)n1cnnc1-c1cccc(NC(=O)Nc2cc(C3CC3)ccn2)n1` [Compound I-047]: the EC50 is under 50 nM. Regarding `CC(C)n1cnnc1-c1cccc(NC(=O)Nc2cc(C3CCCC3)ccn2)n1` [Compound I-048], the EC50 was under 50 nM. Regarding `CC(C)n1cnnc1-c1cccc(NC(=O)Nc2cc(C3CCCCC3)ccn2)n1` [Compound I-049], the EC50 was under 50 nM. On the same count and under the same terms, to `CC(C)n1cnnc1-c1cccc(NC(=O)Nc2cc(C3CCNCC3)ccn2)n1` [Compound I-050] belongs under 50 nM.
